Test [1] relates to bovine aortic endothelial cells. Description: xCELLigence cellular impedance (cell index) in bovine aortic endothelial cells. It is filed as cell-based. The note with it: 62.5 μM, 125 μM or 250 μM, measured for 3 hours, FIG. 13. The source says:
The xCELLigence SP system (Roche) was used to measure changes in cellular impedance (cell index) following the treatment of bovine aortic endothelial cells (European Collection of Cell Cultures) with test compound. In this in vitro cell based experimental system a negative impedance profile correlates with blood pressure reduction in rats—a decrease in impedance is associated with vasodilatation and an increase in impedance is associated with vasoconstriction (Stallaert W, Dorn J F, van der Westhuizen E, Audet M & Bouvier M. Impedance responses reveal β-adrenergic signaling […] and allow classification of ligands with distinct signalling profiles PLoS ONE 2012; 7(1):e29420, doi:10.1371/journal.pone.0029420).
Briefly, 50 μl of cell culture medium (DMEM low glucose supplemented with 15% fetal bovine serum at 37° C.) was added to each well of an E-Plate 96 (Roche), and the background impedance in each well was measured. 50 μl of bovine aortic endothelial cell suspension (10,000 cells/well) was then added to the appropriate wells of the E-Plate 96. Cell index was monitored for each well of the E-Plate 96 in RTCA SP Station within the cell culture incubator. After overnight incubation for 16-20 hours at 5% CO2 and 95% humidity, 100 μl of test compound solution (test compounds were prepared in DMSO and diluted with cell culture medium to a concentration of 62.5 μM, 125 μM or 250 μM of test compound with a final DMSO concentration of 0.25%) was added to the appropriate wells of the E-Plate 96 and cell index values were measured immediately following compound treatment every 20 seconds for 3 hours. Cell index value is baseline-corrected by subtracting the cell index of vehicle-treated cells and normalized by dividing by the cell index at the time point immediately before compound addition. Baseline normalized cell index as a function of time is plotted using Roche RTCA software.

For test [2], the system named is SHR. The test can be described thus: Hepatic fibrosis in SHR on high fat diet. The format is in vivo, rat. The note with it: 10% ethanol drinking solution, 500 pmol/kg/min for 6 weeks, compared to controls, FIG. 17. On the procedure: Fourteen week old SHR on a high fat diet (Glen Forrest Stockfeeders) were randomly assigned to test compound drinking solution (500 pmol/kg/min test compound in 10% ethanol in deionised distilled water) or control drinking solution (10% ethanol in deionised distilled water). […] To quantitate tissue fibrosis and/or fat content, tissue slices≤3 mm thick were fixed in 10% buffered formalin for 24 hours, processed and embedded in paraffin. Three micron transverse sections were stained using Masson's trichrome stain. A minimum of 20 random fields at magnification×20 from transverse sections (5 at each of 2 levels) were digitized and the degree of fibrosis determined as a percent of field area of each digitized image using Image-Pro Plus V.7 (Media Cybernetics, Bethesda, Md., USA) then averaged to determine the level of fibrosis and/or fat content for each rat.

The test system of test [3] is SHR. Description: Masson's tri-chrome stained sections of portal tracts (liver tissue architecture). As to conditions: treated rats versus control, FIG. 18. It is filed as in vivo, rat. The source says:
(§1) Fourteen week old SHR on a high fat diet (Glen Forrest Stockfeeders) were randomly assigned to test compound drinking solution (500 pmol/kg/min test compound in 10% ethanol in deionised distilled water) or control drinking solution (10% ethanol in deionised distilled water). After 4 weeks, rats were anaesthetised and blood samples were taken for analysis of plasma aminotransferase (AST) levels and livers were harvested. To quantitate tissue fibrosis and/or fat content, tissue slices≤3 mm thick were fixed in 10% buffered formalin for 24 hours, processed and embedded in paraffin. Three micron transverse sections were stained using Masson's trichrome stain. A minimum of 20 random fields at magnification×20 from transverse sections (5 at each of 2 levels) were digitized and the degree of fibrosis determined as a percent of field area of each digitized image using Image-Pro Plus V.7 (Media Cybernetics, Bethesda, Md., USA) then averaged to determine the level of fibrosis and/or fat content for each rat.

The test system of test [4] is SHR. Description: Fat accumulation in the liver in SHR on high fat diet. As to conditions: 500 pmol/kg/min for 4 weeks, compared to 18 week controls, FIG. 20, p<0.05. It is filed as in vivo, rat.
Description: as §1

Test [5] concerns Human (HPCT-wt-05) renal proximal tubule cells. The test can be described thus: Cisplatin induced cell death, human renal proximal tubule cells (WST-8/CCK-8). It is filed as cell-based. As to conditions: human renal proximal tubular cells; cisplatin 5 μg/ml; 32 μM or 63 μM of compound; 24 hours; FIG. 14. The protocol:
(§2) Human (HPCT-wt-05) and rat (NRK-52E) renal proximal tubule cells grown in (Keratinocyte Medium II+Keratinocyte Growth Supplement+5 ng/ml human recombinant epidermal growth factor+5% FBS+2 mM glutamine or DMEM+10% FBS+1% NEAA+2 mM glutamine respectively) were placed in 96 well plates at 10,000 cells/well and incubated at 37° C. with 5% CO2 overnight. Test compounds at concentrations of 32 μM or 63 μM were incubated with human or rat renal proximal tubule cells for 2 hours at 37° C. and 5% CO2. Cis-diamminedichloroplatinum[…] (cisplatin) was then added at a concentration of 5 μg/ml for human cells and 12.5 μg/ml for rat cells. Each cell population was then incubated for 24 hours at 37° C. with 5% CO2. Test compound A32 was maintained at its original concentrations. To assay the cytotoxic effects of cisplatin on the human and rat renal proximal tubule cells a highly water-soluble tetrazolium salt, WST-8, which is reduced by dehydrogenases in cells to produce formazan, a water-soluble, yellow-coloured indicator dye was used following the manufacturer's instructions (specifically the Cell Count Kit-8 (CCK-8) assay from Sigma). Plate absorbance of the WST-8 (CCK-8) reagent was then measured at 450 nm using a Thermo Scientific Multiskan EX plate reader.

Test [6] concerns SHR. The test can be described thus: Myocardial fibrosis in SHR on 2.2% salt diet. The format is in vivo, rat. As to conditions: 5% ethanol drinking solution, 500 pmol/kg/min for 4 weeks, compared to 14 and 18 week controls, FIG. 16. From the text:
(§3) Fourteen week old SHR on a 2.2% salt diet (Glen Forrest Stockfeeders) were randomly assigned to zero time control, test compound treatment (500 pmol/kg/min) in the drinking solution or control drinking solution (5% ethanol in deionised distilled water (n=5 each group). The rats assigned to zero time control group (14 weeks old rats) were anaesthetised and had their kidneys and heart harvested while rats assigned to control and test compound treatment were weighed twice weekly and had their drinking solution intake monitored to allow adjustment of the test compound concentration in the drinking solution to maintain a constant dose over the 4-week study period (18 weeks old rats). At the completion of the study period, rats were anaesthetised and had their kidneys and heart harvested. To quantitate tissue fibrosis and/or fat content, tissue slices≤3 mm thick were fixed in 10% buffered formalin for 24 hours, processed and embedded in paraffin. Three micron transverse sections were stained using Masson's trichrome stain. A minimum of 20 random fields at magnification×20 from transverse sections (5 at each of 2 levels) were digitized and the degree of fibrosis determined as a percent of field area of each digitized image using Image-Pro Plus V.7 (Media Cybernetics, Bethesda, Md., USA) then averaged to determine the level of fibrosis and/or fat content for each rat.

Test [7] relates to SHR. Description: Plasma aminotransferase (AST) levels in SHR on high fat diet. It is filed as in vivo, rat. The note with it: 10% ethanol drinking solution, compared to controls, FIG. 21, p<0.025. The protocol:
Fourteen week old SHR on a high fat diet (Glen Forrest Stockfeeders) were randomly assigned to test compound drinking solution (500 pmol/kg/min test compound in 10% ethanol in deionised distilled water) or control drinking solution (10% ethanol in deionised distilled water). After 4 weeks, rats were anaesthetised and blood samples were taken for analysis of plasma aminotransferase (AST) levels and livers were harvested. Plasma AST levels were measured using a RefloVET Plus (Roche) machine using consumable strips with magnetic assay identifiers recognized by the machine. A calibration standard was used in the machine prior to each use and the device was operated according to the manufacturer's instructions. Results are presented as international units per liter (IU/L).

The test system of test [8] is SHR. Description: Interstitial fibrosis in the kidney in SHR on 2.2% salt diet. The format is in vivo, rat. The note with it: 5% ethanol drinking solution, 500 pmol/kg/min for 4 weeks, compared to 18 week controls, FIG. 15.
Description: as §3

Test [9] has as its system SHR. The test can be described thus: Masson's tri-chrome stained sections of heart tissue (tissue architecture). It is filed as in vivo, rat. The note with it: treated rats versus control, FIG. 19.
Description: as §3

In test [10] the test system is rat (NRK-52E) renal proximal tubule cells. The test can be described thus: Cisplatin induced cell death, rat renal proximal tubule cells (WST-8/CCK-8). The format is cell-based. As to conditions: rat renal proximal tubular cells; cisplatin 12.5 μg/ml; 32 μM or 63 μM of compound; 24 hours; FIG. 14. On the procedure: as §2

Structures are written as SMILES.

Take `NC(CCc1cc(-c2ccccc2)ccc1-c1cccc(O)c1)C(F)(F)F` (stereo not drawn) [A6, 2′-(3-Amino-4,4,4-trifluorobutyl)-1,1′:4′,1″-terphenyl-3-ol]: the “Cell impedance response (baseline normalized cell index)” value in test [1] is reported as “Negative impedance responses”. Moreover, the Hepatic fibrosis entry with SHR [2] is “decreased”. Moreover, the “Tissue architecture in portal tract sections” value in the test with SHR [3] is on record as “normal tissue architecture has been restored”.
For `O=C1NCCC1Cc1cc(-c2ccccc2)ccc1-c1cccc(O)c1` (stereo not drawn) [A26], the “Cell impedance response (baseline normalized cell index)” value in test [1] is listed as “Negative impedance responses”.
As to `O=C1NCC/C1=C\c1cc(-c2ccccc2)ccc1-c1cccc(O)c1` [A27], the “Fat in the liver” value with SHR [4] is “reduced”. In addition, in [1], the “Cell impedance response (baseline normalized cell index)” value is “Negative impedance responses”. The Hepatic fibrosis result in the test on SHR [2] is reported as “decreased”. The “Tissue architecture in portal tract sections” value with SHR [3] is “normal tissue architecture has been restored”.
As for `O=C1CC(Cc2cc(-c3ccccc3)ccc2-c2cccc(O)c2)C(=O)N1` (stereo not drawn) [A30, 3-[(3-Hydroxy-1,1′:4′,1″-terphenyl-2′-yl)methyl]pyrrolidine-2,5-dione], the “Cell impedance response (baseline normalized cell index)” value in [1] is recorded as “Negative impedance responses”.
As to `O=C1NC(=O)C(Cc2cc(-c3ccccc3)ccc2-c2cccc(O)c2)N1` (stereo not drawn) [A32, 5-((3-Hydroxy-[1,1′:4′,1″-terphenyl]-2′-yl)methyl)imidazolidine-2,4-dione], in the test with SHR [4], the “Fat in the liver” value is listed as “reduced”. In test [1], the “Cell impedance response (baseline normalized cell index)” value was “Negative impedance responses”. Besides, in the test with SHR [2], the Hepatic fibrosis entry is given as “decreased”. The “Cisplatin induced cell death” value in [5] and in [10] was “decreased” throughout. Also, the Myocardial fibrosis result in the test on SHR [6] is on record as “decreased”. In addition, in the test with SHR [7], the “Plasma AST levels” value is reported as “decreased”. The “Tissue architecture in portal tract sections” value in the test with SHR [3] is “normal tissue architecture has been restored”. In addition, the “Fibrosis in the kidney” value in the test with SHR [8] is reported as “decreased”. Also, in the test with SHR [9], the “Fibrous tissue and tissue architecture in heart sections” value is “minimal fibrous tissue is present and normal tissue architecture has been restored”.
On to `Nc1nocc1Cc1cc(-c2ccccc2)ccc1-c1cccc(O)c1` [A35], for which the “Cell impedance response (baseline normalized cell index)” value in test [1] is recorded as “Negative impedance responses”.
As to `NOCCc1cc(-c2ccccc2)ccc1-c1cccc(O)c1` [A56, 2′-[2-(Aminooxy)ethyl]-1,1′:4′,1″-terphenyl-3-ol], the “Fat in the liver” value with SHR [4] is reported as “reduced”. Further, the “Cell impedance response (baseline normalized cell index)” value in [1] was “Negative impedance responses”. Further, the “Tissue architecture in portal tract sections” value in the test on SHR [3] is on record as “normal tissue architecture has been restored”.
On to `OCCc1cc(-c2ccccc2)ccc1-c1cccc(O)c1` [A56f, 2′-(2-Hydroxyethyl)-1,1′:4′,1″-terphenyl-3-ol], for which the “Cell impedance response (baseline normalized cell index)” value in test [1] is recorded as “Negative impedance responses”. Moreover, the Hepatic fibrosis result in the test on SHR [2] was “decreased”. The “Plasma AST levels” value in the test on SHR [7] is “decreased”. Further, the “Tissue architecture in portal tract sections” value with SHR [3] is “normal tissue architecture has been restored”.
In the case of `O=C1c2ccccc2C(=O)N1OCCc1cc(-c2ccccc2)ccc1-c1cccc(O)c1` [A56g, 2-[2-(3-Hydroxy-1,1′:4′,1″-terphenyl-2′-yl)ethoxy]-1H-isoindole-1,3(2H)-dione], in test [1], the “Cell impedance response (baseline normalized cell index)” value is “Negative impedance responses”.
As for `O=C(O)Cc1cc(-c2ccccc2)ccc1-c1cccc(O)c1` [A56k, (3-Hydroxy-1,1′:4′,1″-terphenyl-2′-yl)acetic acid], the “Cell impedance response (baseline normalized cell index)” value in [1] is “Negative impedance responses”.
As for `OCc1cc(-c2ccccc2)ccc1-c1cccc(O)c1` [A81], in [1], the “Cell impedance response (baseline normalized cell index)” value is recorded as “Negative impedance responses”.

(Values after US10035775B2, “Compositions for the treatment of fibrosis and fibrosis-related conditions” (VECTUS BIOSYSTEMS LIMITED, priority 2015, dated 2018).)
